The record followed here is paper PMC7588914, “Luminescence of Cypridina Luciferin in the Presence of Human Plasma Alpha 1-Acid Glycoprotein” (International Journal of Molecular Sciences, 2020).

This experiment relates to T1, human plasma alpha 1-acid glycoprotein (hAGP).
T1 construct: gene ORM1; native, purified from human plasma (commercial, Sigma-Aldrich); secreted glycoprotein, signal peptide removed; plasma preparation is normally a mix of ORM1 and ORM2 products
In words: luminescence intensity, Michaelis-Menten fit. The experiment is classed as biochemical. The note with it: 50 mM Gly-NaOH pH 9.5, room temperature, 25 μg/mL hAGP; hAGP treated as a luciferase.

Consider `CC[C@H](C)c1nc2c(CCCNC(=N)N)[nH]c(-c3c[nH]c4ccccc34)cn-2c1=O` [Cypridina luciferin], for which the Km (in general, the concentration of substrate that gives half-maximal velocity) worked out at 0.46 µM.
